Source: the METLIN SMRT retention time set (Domingo-Almenara et al. 2019)

Assay: gradient 5% acetonitrile 3 min, to 50% in 2 min, to 85% in 15 min, held 3 min, 100 µL/min
Conditions: column: Zorbax Extend-C18 2.1 x 50 mm; eluents: water / acetonitrile, 0.1% formic acid
In short: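 Pure standards were analyzed in mixtures of ~100 molecules using HPLC coupled to a quadrupole time-of-flight mass spectrometer, in both positive and negative ionization mode. Separation used a Zorbax Extend-C18 column (2.1 × 50 mm, 1.8 μm) at 100 μL/min, with water and acetonitrile each containing 0.1% formic acid. Dead and dwell volumes were 40 μL and 900 μL, and data were collected over 3 months. Retention time was read from computationally picked adduct peaks, each inspected manually.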

Compound	RP-LC retention time [s]
COc1ccc(C2CC(=O)c3c([nH]c(C(=O)OC4CCCC4C)c3C)C2)cc1OC (stereo unspecified)	1050
COc1ccc(-c2nc(N3CCOCC3)c3sc(CN(C)c4ncc(C(=O)NO)cn4)cc3n2)cn1	674
O=C([C@@H]1C[C@H](F)CN1C(=O)C1(c2ccccc2)CC1)N1CCOCC1	639
CCOc1ccc(NC(=O)Cn2nc3c4sc(N(C)C)nc4ncn3c2=O)cc1	692
COc1ccc(CC(=O)N2CCC3(C2)C(=O)Nc2ccc(OC)cc23)cc1 (stereo unspecified)	709
COc1cccc(CNC(=O)c2cn3ccc(C)cc3n2)c1OC	632
O=C(Cc1cccs1)NCc1cc(-c2ccc(Cl)cc2)on1	858
O=C(Cn1c(C(F)(F)F)nc2cc3c(cc21)OCCO3)NCc1ccccc1	829
CC(C)n1c(=O)sc2cc(S(=O)(=O)N3CCC(C(=O)NC4CCCC4)CC3)ccc21	896
CCN(C(=O)c1cc2c(s1)N(CCOC)CCCC2)C(C)C	1070
Cn1ncc2c(N3CCSCC3)nc(C(=O)NCc3ccc(C(F)(F)F)cc3)nc21	907
Cc1ccc(CNC(=O)[C@@]23CCCC[C@H]2N(C)C(=O)CC3)cc1	688
Cc1cc(N2C=NS(=O)(=O)c3cccnc32)ccc1F	807
CCNC(=O)C1CCc2sc(C(=O)N(C)C)cc2C1 (stereo unspecified)	617
O=C(Nc1cc(C(F)(F)F)cc(C(F)(F)F)c1)Nc1c(Br)cc(Br)cc1-c1nn[nH]n1	1130
COc1cncc(C(=O)Nc2cc(F)ccc2Cl)c1	766
Cc1cccc(-c2nc3nc(C)cc(Nc4cccc5nsnc45)n3n2)c1	984
NC(=O)[C@H](Cc1ccccc1)NC(=O)[C@H](Cc1ccccc1)NC(=O)[C@@H]1CCCN1C(=O)[C@@H](N)Cc1ccc(O)cc1	678

Other lines, results leading:

RP-LC retention time [s]	Compound
726	Cc1ccc(OCC(O)CN2CCN(c3ccccc3)CC2)cc1C (stereo unspecified)
686	CCCCNC(=O)C1CCCN(c2nnc(C)c3c(C)n(-c4ccccc4)nc23)C1 (stereo unspecified)
743	CCOc1ccccc1NC(=O)Cn1cnc2nc(N3CCCC(C(=O)NC(C)C)C3)sc2c1=O (stereo unspecified)
810	CC(C)c1ccc(-n2nc(N3CCN(C(=O)C4CC4)CC3)ccc2=O)cc1
1030	Cc1cc(C)c(-c2csc(Nc3ccccn3)n2)cc1C
576	COc1ccc(NC(=O)CCNc2cnc3cnccn23)c(C)c1
579	CC(=O)N1CCN(c2ccnc3c2c(=O)n(CC(=O)Nc2cc(C)on2)c(=O)n3C)CC1
736	Cc1ccc(Cl)cc1NC(=O)N1CCC(c2cc(N)on2)CC1
909	CCOC(=O)c1nc(N(C)c2ccc(F)cc2)c2ccccc2n1
664	O=C(Nc1cccc(-c2cn3cccnc3n2)c1)c1ccccc1F
698	O=C(NC(Cc1ccccc1)C(=O)N1CCN(c2ccccn2)CC1)c1cccc(Cl)c1 (stereo unspecified)
634	Cc1cc(C(=O)NCc2ccc(C)o2)c2ccccc2n1
615	O=C(Cn1ncc2c(N3CCN(c4ccccn4)CC3)ncnc21)Nc1cc(F)ccc1F
860	Cc1cc(C)cc(Oc2nccn3c(=O)n(CC(=O)NCc4ccccc4)nc23)c1
851	Cc1ccc(C2=NC3(CCN(C(=O)Nc4cccc(C)c4)CC3)NC2=O)cc1
745	COc1cc(OC)cc(C(=O)NC2CCN(c3cc(-c4ccc(F)cc4)[nH]n3)C2)c1 (stereo unspecified)
1390	COCCCNC(=O)Cn1c(=O)n(-c2ccc(F)cc2)c2ncccc21
918	CC(C)NC(=O)c1ccc(OCC2CCCN(C(=O)Cc3ccc(Cl)cc3)C2)cc1 (stereo unspecified)
